Laboratory results taken from patent publication US11104670B2, “4-pyrimidin-5-ylmethyl-morpholine derivatives and the use thereof as medicament” (Boehringer Ingelheim International GmbH, priority 2018, dated 2021).

Assays:
Nav1.6 channel = Nav1.6 channel (Homo sapiens (Human), UniProt Q9UQD0); experiment: Nav1.6 inhibition, IonWorks Quattro electrophysiology; format: cell-based; details: for inhibition at 1 µM / inhibition at 5 µM: normalized to vehicle (0%) and maximal inhibition control (100%)
Sequence of Nav1.6 channel (Q9UQD0 whole entry): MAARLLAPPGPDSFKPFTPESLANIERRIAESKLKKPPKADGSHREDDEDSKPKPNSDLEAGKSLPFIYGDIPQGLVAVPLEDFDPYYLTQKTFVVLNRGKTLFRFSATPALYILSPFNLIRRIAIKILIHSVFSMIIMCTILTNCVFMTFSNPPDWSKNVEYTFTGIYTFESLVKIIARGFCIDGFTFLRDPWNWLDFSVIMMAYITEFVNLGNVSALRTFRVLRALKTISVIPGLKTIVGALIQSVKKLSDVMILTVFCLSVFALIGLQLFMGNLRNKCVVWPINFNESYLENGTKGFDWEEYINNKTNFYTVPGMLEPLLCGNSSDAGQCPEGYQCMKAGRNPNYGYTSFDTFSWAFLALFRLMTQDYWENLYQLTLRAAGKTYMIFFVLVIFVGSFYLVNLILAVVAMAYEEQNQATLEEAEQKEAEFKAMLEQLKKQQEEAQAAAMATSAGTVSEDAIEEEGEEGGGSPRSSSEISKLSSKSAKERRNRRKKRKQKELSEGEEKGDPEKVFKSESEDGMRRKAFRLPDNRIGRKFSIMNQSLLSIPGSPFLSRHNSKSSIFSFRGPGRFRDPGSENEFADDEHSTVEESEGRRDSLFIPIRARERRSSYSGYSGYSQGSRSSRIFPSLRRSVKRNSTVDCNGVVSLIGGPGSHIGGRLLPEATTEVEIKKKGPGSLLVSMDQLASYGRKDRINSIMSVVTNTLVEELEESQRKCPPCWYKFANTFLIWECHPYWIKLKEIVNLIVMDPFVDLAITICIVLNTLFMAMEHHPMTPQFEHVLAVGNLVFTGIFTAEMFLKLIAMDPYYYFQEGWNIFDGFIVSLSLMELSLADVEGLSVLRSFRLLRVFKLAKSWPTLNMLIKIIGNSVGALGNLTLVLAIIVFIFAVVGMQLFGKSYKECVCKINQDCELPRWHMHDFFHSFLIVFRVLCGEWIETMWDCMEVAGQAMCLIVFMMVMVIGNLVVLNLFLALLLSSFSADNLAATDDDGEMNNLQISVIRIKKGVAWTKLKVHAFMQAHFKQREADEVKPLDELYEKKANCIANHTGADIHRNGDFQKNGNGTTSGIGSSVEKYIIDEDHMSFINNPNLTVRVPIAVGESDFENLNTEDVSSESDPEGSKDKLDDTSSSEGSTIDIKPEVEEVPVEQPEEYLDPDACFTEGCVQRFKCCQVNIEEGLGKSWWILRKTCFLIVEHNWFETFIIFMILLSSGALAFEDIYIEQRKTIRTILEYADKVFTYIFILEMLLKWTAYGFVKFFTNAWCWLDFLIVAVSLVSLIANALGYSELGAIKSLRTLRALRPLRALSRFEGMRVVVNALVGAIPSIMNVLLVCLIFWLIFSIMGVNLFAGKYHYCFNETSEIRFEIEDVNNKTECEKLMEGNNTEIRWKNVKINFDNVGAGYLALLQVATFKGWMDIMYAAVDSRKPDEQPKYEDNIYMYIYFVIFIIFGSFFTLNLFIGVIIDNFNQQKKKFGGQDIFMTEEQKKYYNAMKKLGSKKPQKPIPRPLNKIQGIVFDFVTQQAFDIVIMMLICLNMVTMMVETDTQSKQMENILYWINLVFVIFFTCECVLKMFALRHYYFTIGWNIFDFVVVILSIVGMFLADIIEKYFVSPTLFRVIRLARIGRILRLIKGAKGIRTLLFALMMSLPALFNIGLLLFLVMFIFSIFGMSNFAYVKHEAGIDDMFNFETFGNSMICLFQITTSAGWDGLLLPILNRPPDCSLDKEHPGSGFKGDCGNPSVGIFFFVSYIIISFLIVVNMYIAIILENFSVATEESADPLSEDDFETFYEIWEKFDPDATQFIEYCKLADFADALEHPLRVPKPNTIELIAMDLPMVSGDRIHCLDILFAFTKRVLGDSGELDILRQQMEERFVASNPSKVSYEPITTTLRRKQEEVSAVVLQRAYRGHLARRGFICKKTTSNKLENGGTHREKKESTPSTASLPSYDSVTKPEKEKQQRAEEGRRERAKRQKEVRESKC
Protocol: Ion Works Quattro electrophysiological platform
The compounds were prepared in DMSO at 300× the final assay concentrations of 1 and 5 μM.
The 300× DMSO stock solutions were transferred into assay plates where 2 μl per well of each 300× stock solution were placed. All assay plates were stored at −80° C. until the day of assay.
On the day of the assay, the appropriate assay plate was thawed at room temperature, centrifuged, and 198 μl of external recording solution was added and mixed thoroughly. This provided a 1:100 dilution. A further 1:3 dilution occurred upon addition to the cells in the IonWorks Quattro electrophysiological platform, giving a 1:300 dilution in total.
On each assay plate, at least 8 wells were reserved for vehicle control (0.3% DMSO) and at least 8 wells for each positive control specific to the cell line tested. The positive controls were tested at a maximal blocking and an approximate IC50 concentration. As positive control Lidocaine at concentrations of 30 and 1000 μM was used.
Amphotericin B was used to obtain electrical access to the cell interior at a final concentration of 200 μg/ml in internal recording solution.
State-dependent inhibition: Sodium channels when held at depolarized potential or long test pulse, the channels open and inactivate and then stay inactivated until the membrane potential is stepped back to hyperpolarized potentials, when the inactivated channels recover from inactivation into closed state.
Cells were held at −120 mV. In order to completely inactivate the sodium channels (pulse 1), the cells were pulsed to +0 mV for 2500 ms and stepped back to −120 mV for 10 ms (to completely recover from inactivation, however channels that had drugs bound to them will not recover from inactivation) before stepping to +0 mV for 20 ms (pulse 2).
Both the positive and vehicle control data associated with each cell line assayed are shown below as an example. The mean is shown for each positive and negative control as solid symbol with the total number of individual well replicates given next to the solid symbol. In addition, the individual data of each well are shown on the graph as open symbols so that the variation about the mean value can be readily assessed.
In FIG. 2, a Post/Pre value of 1.0 corresponds to 0% inhibition, a Post/Pre value of 0.0 corresponds to 100% inhibition.
Tables 3 and 4 show the normalized percentage inhibition of Nav1.6 channel. […] (see also the figure Assay Control Results above).

MDR1 (P-gp) = MDR1 (P-gp) (Homo sapiens (Human), UniProt P08183); experiment: MDCK assay P-gp (MDCK-MDR1 monolayer permeability); format: in vitro ADME; details: for Papp A→B: MDCK-MDR1, apical-to-basal, pH 7.4; for efflux ratio: MDCK-MDR1, pH 7.4, Papp (b-a) divided by Papp (a-b), read-out: efflux ratio PEBA/PEAB
Protocol: The MDCK assays provide information on the potential of a compound to pass the blood brain barrier. Permeability measurements across polarized, confluent MDCK-MDR1 cell monolayers grown on permeable filter supports are used as an in vitro absorption model: apparent permeability coefficients (PE) of the compounds across the MDCK-MDR1 cell monolayers are measured (pH 7.4, 37° C.) in apical-to-basal (AB) and basal-to-apical (BA) transport direction. The AB permeability (PEAB) represents drug absorption from the blood into the brain and the BA permeability (PEBA) drug efflux from the brain back into the blood via both, passive permeability as well as active transport mechanisms mediated by efflux and uptake transporters that are expressed on the MDCK-MDR1 cells, predominantly by the overexpressed human MDR1. Identical or similar permeabilities in both transport directions indicate passive permeation (PEBA/PEAB≤1), vectorial permeability points to additional active transport mechanisms. Higher PEBA than PEAB (PEBA/PEAB>5) indicates the involvement of active efflux mediated by MDR1, which might compromise the goal to achieve sufficient brain exposure. Therefore, this assay provides valuable support for selection of compounds applicable for further in vivo testing. High permeability not limited by efflux at the blood brain barrier is a favourable characteristic for compounds that are to be used for drugs acting primarily in the CNS.
Apparent permeability coefficients (Papp) of the compounds across the MDCK-MDR1 monolayers (MDCKII cells transfected with human MDR1 cDNA expression plasmid) are measured in apical-to-basal (AB) and basal-to-apical (BA) direction.
MDCK-MDR1 cells (6×10^5 cells/cm^2) are seeded on filter inserts (Corning, Transwell, polycarbonate, 0.4 μm pore size) and cultured for 9 to 10 days. Compounds dissolved in DMSO stock solution (1-20 mM) are diluted with HTP-4 aqueous buffer (128.13 mM NaCl, 5.36 mM KCl, 1 mM MgSO4, 1.8 mM CaCl2, 4.17 mM NaHCO3, 1.19 mM Na2HPO4, 0.41 mM NaH2PO4, 15 mM HEPES, 20 mM glucose, pH 7.4) supplemented with 0.25% BSA to prepare the transport solutions (final concentration: 1 or 10 μM, final DMSO <=0.5%). The transport solution is applied to the apical or basolateral donor side for measuring A-B or B-A permeability, respectively. The receiver side contains HTP-4 buffer supplemented with 0.25% BSA. Samples are collected at the start and end of experiment from the donor and at various time intervals for up to 2 hours also from the receiver side for concentration measurement by HPLC-MS/MS (RapidFire High-throughput MS System (Agilent) coupled to QTrap 6500 (AB Sciex) or TSQ Vantage (Thermo Scientific)). Sampled receiver volumes are replaced with fresh receiver solution. Efflux ratio is calculated dividing the Papp (b-a) values by the Papp (a-b) values.

Structure (SMILES) | inhibition at 1 µM (Nav1.6 channel) [%] | inhibition at 5 µM (Nav1.6 channel) [%] | Papp A→B (MDR1 (P-gp)) [×10⁻⁶ cm/s] | efflux ratio (MDR1 (P-gp)) | inhibition of the Nav 1.6 channel (in words) (Nav1.6 channel; at 5 μM)
CNC(=O)[C@@H]1CN(Cc2cnc(Oc3ccccc3Cl)nc2)CCO1 [Example 26] | 12.8 | 5.7 | 95 | 0.6 | 
CNC(=O)[C@@H]1CN(Cc2cnc(Oc3ccc(F)cc3C)nc2)CCO1 [Example 21] | 1.3 | 3.6 | 56 | 1 | 
CNC(=O)[C@@H]1CN(Cc2cnc(Oc3ccc(F)cc3)nc2)CCO1 [Example 32] | -7.7 | -13.5 | 82 | 0.5 | 
CNC(=O)[C@@H]1CN(Cc2cnc(Oc3ccccc3F)nc2)CCO1 [Example 27] | -3.1 | 4.3 | 54 | 0.7 | 
CNC(=O)[C@@H]1CN(Cc2cnc(Oc3ccc(Cl)cc3)nc2)CCO1 [Example 25] | -11.8 | -18.8 | 88 | 0.5 | not showing any significant inhibition
CNC(=O)[C@@H]1CN(Cc2cnc(Oc3ccc(C)cc3F)nc2)CCO1 [Example 20] | -8.9 | -10.1 | 80 | 0.7 | 
CNC(=O)[C@@H]1CN(Cc2cnc(Oc3ccc(F)cc3F)nc2)CCO1 [Example 23] | 0.1 | 2.9 | 65 | 0.9 | 
CNC(=O)[C@@H]1CN(Cc2cnc(Oc3ccc(C)cc3C)nc2)CCO1 [Example 22] | 3.8 | -10.4 | 57 | 0.7 | 
CNC(=O)[C@@H]1CN(Cc2cnc(Oc3ccc(Cl)cc3F)nc2)CCO1 [Example 24] | 5.8 | -3.7 | 56 | 0.8 | 
CNC(=O)[C@@H]1CN(Cc2cnc(Oc3ccc(C)cc3)nc2)CCO1 [Example 28] | -6.2 | -14.6 | 83 | 0.5 | 
